Results published in ChEMBL document CHEMBL1135585, “Mixed steroidal 1,2,4,5-tetraoxanes: antimalarial and antimycobacterial activity” (J Med Chem, 2002).

What was measured:
[1] = test system: Plasmodium falciparum; assay: microbe, parasite or virus in culture
Description: (§1) In vitro inhibitory activity against chloroquine-resistant Plasmodium falciparum W2 Indochina

[2] = test system: Plasmodium falciparum; assay: microbe, parasite or virus in culture; remark: listed apart in the source
Description: (§2) In vitro inhibitory activity against chloroquine-sensitive Plasmodium falciparum African D6

[3] = test system: Plasmodium falciparum
Description: as §1

[4] = test system: Plasmodium falciparum; remark: listed apart in the source
Description: as §2

COC(=O)CCC(C)C1CC[C@H]2[C@@H]3[C@H](OC(C)=O)C[C@@H]4CC5(CC[C@]4(C)[C@H]3C[C@H](OC(C)=O)[C@]12C)OOC1(CCCC1)OO5 (stereo partly drawn)
IC50 [1]: 27.7 nM | IC50 [2]: 39.1 nM

CC(=O)O[C@H]1C[C@H]2[C@@H]([C@H](OC(C)=O)C[C@@H]3CC4(CC[C@@]32C)OOC2(CCC(C)CC2)OO4)[C@@H]2CCC(C(C)CCC(=O)O)[C@@]12C (stereo in doubt; 4h)
IC50 [3]: 17.7 nM | IC50 [4]: 31.1 nM

CC(=O)O[C@H]1C[C@H]2[C@@H]([C@H](OC(C)=O)C[C@@H]3CC4(CC[C@@]32C)OOC2(CCCCC2)OO4)[C@@H]2CCC(C(C)CCC(=O)O)[C@@]12C (stereo partly drawn)
IC50 [1]: 19.2 nM | IC50 [2]: 11.8 nM

CCC1CCC2(CC1)OOC1(CC[C@@]3(C)[C@H](C[C@@H](OC(C)=O)[C@@H]4[C@@H]3C[C@H](OC(C)=O)[C@]3(C)C(C(C)CCC(=O)OC)CC[C@@H]43)C1)OO2 (single isomer, unassigned; 3j)
IC50 [4]: 17.7 nM | IC50 [1]: 28.3 nM

OC(c1cc(C(F)(F)F)nc2c(C(F)(F)F)cccc12)C1CCCCN1 (stereo not drawn) [MEFLOQUINE]
IC50 [2]: 28.3 nM

CCC1CCC2(CC1)OOC1(CC[C@@]3(C)[C@H](C[C@@H](OC(C)=O)[C@@H]4[C@@H]3C[C@H](OC(C)=O)[C@]3(C)C(C(C)CCC(=O)NC)CC[C@@H]43)C1)OO2 (mixture of isomers; 25)
IC50 [3]: 6.15 nM | IC50 [4]: 27.9 nM

C[C@@H]1CC[C@H]2[C@@H](C)C(=O)O[C@@H]3O[C@@]4(C)CC[C@@H]1[C@]32OO4 [ARTEMISININ]
IC50 [1]: 7.3 nM | IC50 [2]: 8.4 nM

CCNC(=O)CCC(C)C1CC[C@H]2[C@@H]3[C@H](OC(C)=O)C[C@@H]4CC5(CC[C@]4(C)[C@H]3C[C@H](OC(C)=O)[C@]12C)OOC1(CCCCC1C)OO5 (stereo partly drawn)
IC50 [1]: 6.97 nM | IC50 [2]: 12.7 nM

COC(=O)CCC(C)C1CC[C@H]2[C@@H]3[C@H](OC(C)=O)C[C@@H]4CC5(CC[C@]4(C)[C@H]3C[C@H](OC(C)=O)[C@]12C)OOC1(CCCCC1C)OO5 (stereo partly drawn)
IC50 [1]: 15.6 nM | IC50 [2]: 27 nM

CCNC(=O)CCC(C)C1CC[C@H]2[C@@H]3[C@H](OC(C)=O)C[C@@H]4CC5(CC[C@]4(C)[C@H]3C[C@H](OC(C)=O)[C@]12C)OOC1(CCC(C)CC1)OO5 (stereo in doubt; 18)
IC50 [3]: 9.93 nM | IC50 [4]: 15.6 nM

CCC1CCC2(CC1)OOC1(CC[C@@]3(C)[C@H](C[C@@H](OC(C)=O)[C@@H]4[C@@H]3C[C@H](OC(C)=O)[C@]3(C)C(C(C)CCC(=O)O)CC[C@@H]43)C1)OO2 (stereo in doubt; 4i)
IC50 [1]: 7.26 nM | IC50 [2]: 5.76 nM

CC(=O)O[C@H]1C[C@H]2[C@@H]([C@H](OC(C)=O)C[C@@H]3CC4(CC[C@@]32C)OOC2(CCCCC2)OO4)[C@@H]2CCC(C(C)CCC(N)=O)[C@@]12C (stereo partly drawn)
IC50 [1]: 4.74 nM | IC50 [2]: 11.8 nM

CCC1CCC2(CC1)OOC1(CC[C@@]3(C)[C@H](C[C@@H](OC(C)=O)[C@@H]4[C@@H]3C[C@H](OC(C)=O)[C@]3(C)C(C(C)CCC(N)=O)CC[C@@H]43)C1)OO2 (mixture of isomers; 24)
IC50 [4]: 31.1 nM | IC50 [1]: 12.5 nM

CCNC(=O)CCC(C)C1CC[C@H]2[C@@H]3[C@H](OC(C)=O)C[C@@H]4CC5(CC[C@]4(C)[C@H]3C[C@H](OC(C)=O)[C@]12C)OOC1(CCC(CC)CC1)OO5 (mixture of isomers; 26)
IC50 [3]: 18.1 nM | IC50 [4]: 23.1 nM

COC(=O)CCC(C)C1CC[C@H]2[C@@H]3[C@H](OC(C)=O)C[C@@H]4CC5(CC[C@]4(C)[C@H]3C[C@H](OC(C)=O)[C@]12C)OOC1(CC(C)CCC1C(C)C)OO5 (stereo partly drawn)
IC50 [1]: 73.2 nM | IC50 [2]: 154 nM

CCCNC(=O)CCC(C)C1CC[C@H]2[C@@H]3[C@H](OC(C)=O)C[C@@H]4CC5(CC[C@]4(C)[C@H]3C[C@H](OC(C)=O)[C@]12C)OOC1(CCCCC1C)OO5 (stereo partly drawn)
IC50 [1]: 9.29 nM | IC50 [2]: 13.2 nM

CC(=O)O[C@H]1C[C@H]2[C@@H]([C@H](OC(C)=O)C[C@@H]3CC4(CC[C@@]32C)OOC2(CCCCC2C)OO4)[C@@H]2CCC(C(C)CCC(N)=O)[C@@]12C (stereo partly drawn)
IC50 [1]: 11.1 nM | IC50 [2]: 17.3 nM

CNC(=O)CCC(C)C1CC[C@H]2[C@@H]3[C@H](OC(C)=O)C[C@@H]4CC5(CC[C@]4(C)[C@H]3C[C@H](OC(C)=O)[C@]12C)OOC1(CCC(C)CC1)OO5 (stereo in doubt; 17)
IC50 [3]: 11.9 nM | IC50 [4]: 16.7 nM

CCC1CCC2(CC1)OOC1(CC[C@@]3(C)[C@H](C[C@@H](OC(C)=O)[C@@H]4[C@@H]3C[C@H](OC(C)=O)[C@]3(C)C(C(C)CCC(=O)OC)CC[C@@H]43)C1)OO2 (single isomer, unassigned; 3i)
IC50 [3]: 15.5 nM | IC50 [4]: 6.73 nM

COC(=O)CCC(C)C1CC[C@H]2[C@@H]3[C@H](OC(C)=O)C[C@@H]4CC5(CC[C@]4(C)[C@H]3C[C@H](OC(C)=O)[C@]12C)OOC1(OO5)C(C)CCCC1C (stereo partly drawn)
IC50 [1]: 357 nM | IC50 [2]: 31.2 nM

CCCNC(=O)CCC(C)C1CC[C@H]2[C@@H]3[C@H](OC(C)=O)C[C@@H]4CC5(CC[C@]4(C)[C@H]3C[C@H](OC(C)=O)[C@]12C)OOC1(CCC(CC)CC1)OO5 (mixture of isomers; 27)
IC50 [3]: 123 nM | IC50 [4]: 90.2 nM

CC(=O)O[C@H]1C[C@H]2[C@@H]([C@H](OC(C)=O)C[C@@H]3CC4(CC[C@@]32C)OOC2(CCCCC2C)OO4)[C@@H]2CCC(C(C)CCC(=O)O)[C@@]12C (stereo partly drawn)
IC50 [1]: 37.5 nM | IC50 [2]: 67.6 nM

COC(=O)CCC(C)C1CC[C@H]2[C@@H]3[C@H](OC(C)=O)C[C@@H]4CC5(CC[C@]4(C)[C@H]3C[C@H](OC(C)=O)[C@]12C)OOC1(CCC(C(C)(C)C)CC1)OO5 (stereo in doubt; 3l)
IC50 [4]: 51.9 nM | IC50 [1]: 27.8 nM

CCCNC(=O)CCC(C)C1CC[C@H]2[C@@H]3[C@H](OC(C)=O)C[C@@H]4CC5(CC[C@]4(C)[C@H]3C[C@H](OC(C)=O)[C@]12C)OOC1(CCC(CC)CC1)OO5 (mixture of isomers; 23)
IC50 [3]: 4.51 nM | IC50 [4]: 8.34 nM

CCCNC(=O)CCC(C)C1CC[C@H]2[C@@H]3[C@H](OC(C)=O)C[C@@H]4CC5(CC[C@]4(C)[C@H]3C[C@H](OC(C)=O)[C@]12C)OOC1(CCCCC1)OO5 (stereo partly drawn)
IC50 [1]: 6.8 nM | IC50 [2]: 14.8 nM

CCC1CCC2(CC1)OOC1(CC[C@@]3(C)[C@H](C[C@@H](OC(C)=O)[C@@H]4[C@@H]3C[C@H](OC(C)=O)[C@]3(C)C(C(C)CCC(N)=O)CC[C@@H]43)C1)OO2 (mixture of isomers; 20)
IC50 [3]: 10.7 nM | IC50 [4]: 8.4 nM

COC(=O)CCC(C)C1CC[C@H]2[C@@H]3[C@H](OC(C)=O)C[C@@H]4CC5(CC[C@]4(C)[C@H]3C[C@H](OC(C)=O)[C@]12C)OOC1(CCC(C(C)(C)C)CC1)OO5 (stereo in doubt; 3k)
IC50 [3]: 52.7 nM | IC50 [4]: 107 nM

COC(=O)CCC(C)C1CC[C@H]2[C@@H]3[C@H](OC(C)=O)C[C@@H]4CC5(CC[C@]4(C)[C@H]3C[C@H](OC(C)=O)[C@]12C)OOC1(CCCCCCC1)OO5 (stereo partly drawn)
IC50 [1]: 20 nM | IC50 [2]: 48.4 nM

CCCNC(=O)CCC(C)C1CC[C@H]2[C@@H]3[C@H](OC(C)=O)C[C@@H]4CC5(CC[C@]4(C)[C@H]3C[C@H](OC(C)=O)[C@]12C)OOC1(CCC(C)CC1)OO5 (stereo in doubt; 19)
IC50 [3]: 83 nM | IC50 [4]: 84.9 nM

CCC1CCC2(CC1)OOC1(CC[C@@]3(C)[C@H](C[C@@H](OC(C)=O)[C@@H]4[C@@H]3C[C@H](OC(C)=O)[C@]3(C)C(C(C)CCC(=O)O)CC[C@@H]43)C1)OO2 (stereo in doubt; 4j)
IC50 [3]: 14.4 nM | IC50 [4]: 9.83 nM

COC(=O)CCC(C)C1CC[C@H]2[C@@H]3[C@H](OC(C)=O)C[C@@H]4CC5(CC[C@]4(C)[C@H]3C[C@H](OC(C)=O)[C@]12C)OOC1(CCC(C)CC1)OO5 (stereo in doubt; 3h)
IC50 [3]: 13.2 nM | IC50 [4]: 24.6 nM

CCC1CCC2(CC1)OOC1(CC[C@@]3(C)[C@H](C[C@@H](OC(C)=O)[C@@H]4[C@@H]3C[C@H](OC(C)=O)[C@]3(C)C(C(C)CCC(=O)NC)CC[C@@H]43)C1)OO2 (mixture of isomers; 21)
IC50 [4]: 7.21 nM | IC50 [1]: 7.82 nM

COC(=O)CNC(=O)CCC(C)C1CC[C@H]2[C@@H]3[C@H](OC(C)=O)C[C@@H]4CC5(CC[C@]4(C)[C@H]3C[C@H](OC(C)=O)[C@]12C)OOC1(CCCCC1)OO5 (stereo partly drawn)
IC50 [1]: 10.8 nM | IC50 [2]: 22 nM

COC(=O)CCC(C)C1CC[C@H]2[C@@H]3[C@H](OC(C)=O)C[C@@H]4CC5(CC[C@]4(C)[C@H]3C[C@H](OC(C)=O)[C@]12C)OOC1(CCCCC1)OO5 (stereo partly drawn)
IC50 [1]: 17 nM | IC50 [2]: 21.5 nM

CC(=O)O[C@H]1C[C@H]2[C@@H]([C@H](OC(C)=O)C[C@@H]3CC4(CC[C@@]32C)OOC2(CCC(C)CC2)OO4)[C@@H]2CCC(C(C)CCC(N)=O)[C@@]12C (stereo in doubt; 16)
IC50 [3]: 14.1 nM | IC50 [4]: 20 nM

CNC(=O)CCC(C)C1CC[C@H]2[C@@H]3[C@H](OC(C)=O)C[C@@H]4CC5(CC[C@]4(C)[C@H]3C[C@H](OC(C)=O)[C@]12C)OOC1(CCCCC1C)OO5 (stereo partly drawn)
IC50 [1]: 10 nM | IC50 [2]: 15.2 nM

CCNC(=O)CCC(C)C1CC[C@H]2[C@@H]3[C@H](OC(C)=O)C[C@@H]4CC5(CC[C@]4(C)[C@H]3C[C@H](OC(C)=O)[C@]12C)OOC1(CCC(CC)CC1)OO5 (mixture of isomers; 22)
IC50 [1]: 9.56 nM | IC50 [2]: 19.8 nM
